The text below walks through data of ChEMBL document CHEMBL4219205, “Utilizing a structure-based docking approach to develop potent G protein-coupled receptor kinase (GRK) 2 and 5 inhibitors” (Bioorg Med Chem Lett, 2018).

In assay [1] the target is G protein-coupled receptor kinase 5 (Homo sapiens, UniProt P34947). Put plainly: Inhibition of GRK5 (unknown origin) preincubated for 10 mins followed by peptide substrate and ATP addition measured after 1 hr by TR-FRET assay.
In assay [2] the target is T1, Rhodopsin kinase GRK1 (Homo sapiens, UniProt Q15835).
T1 sequence (Q15835 whole entry): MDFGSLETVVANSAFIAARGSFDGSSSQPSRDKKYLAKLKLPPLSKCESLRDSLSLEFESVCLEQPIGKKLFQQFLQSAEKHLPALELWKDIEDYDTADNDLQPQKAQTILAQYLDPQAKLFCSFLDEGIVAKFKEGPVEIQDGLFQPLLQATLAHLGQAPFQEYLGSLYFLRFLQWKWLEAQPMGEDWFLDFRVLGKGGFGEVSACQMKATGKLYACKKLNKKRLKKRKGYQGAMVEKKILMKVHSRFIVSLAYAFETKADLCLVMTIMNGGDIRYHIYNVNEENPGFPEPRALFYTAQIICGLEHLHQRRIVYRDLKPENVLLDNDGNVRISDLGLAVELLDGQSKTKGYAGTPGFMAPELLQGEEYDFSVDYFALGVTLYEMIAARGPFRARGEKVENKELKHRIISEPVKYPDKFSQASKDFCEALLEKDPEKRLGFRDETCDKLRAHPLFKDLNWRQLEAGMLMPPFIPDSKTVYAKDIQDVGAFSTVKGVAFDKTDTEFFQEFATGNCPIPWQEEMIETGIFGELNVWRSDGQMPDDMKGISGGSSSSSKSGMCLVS
Put plainly: Inhibition of GRK1 (unknown origin) preincubated for 10 mins followed by peptide substrate and ATP addition measured after 1 hr by TR-FRET assay. For orientation: Time-resolved FRET reads energy transfer from a long-lived donor to a nearby acceptor.

Assay [3] concerns the target T2, Beta-adrenergic receptor kinase 1 (Homo sapiens, UniProt P25098).
T2 sequence (P25098 whole entry): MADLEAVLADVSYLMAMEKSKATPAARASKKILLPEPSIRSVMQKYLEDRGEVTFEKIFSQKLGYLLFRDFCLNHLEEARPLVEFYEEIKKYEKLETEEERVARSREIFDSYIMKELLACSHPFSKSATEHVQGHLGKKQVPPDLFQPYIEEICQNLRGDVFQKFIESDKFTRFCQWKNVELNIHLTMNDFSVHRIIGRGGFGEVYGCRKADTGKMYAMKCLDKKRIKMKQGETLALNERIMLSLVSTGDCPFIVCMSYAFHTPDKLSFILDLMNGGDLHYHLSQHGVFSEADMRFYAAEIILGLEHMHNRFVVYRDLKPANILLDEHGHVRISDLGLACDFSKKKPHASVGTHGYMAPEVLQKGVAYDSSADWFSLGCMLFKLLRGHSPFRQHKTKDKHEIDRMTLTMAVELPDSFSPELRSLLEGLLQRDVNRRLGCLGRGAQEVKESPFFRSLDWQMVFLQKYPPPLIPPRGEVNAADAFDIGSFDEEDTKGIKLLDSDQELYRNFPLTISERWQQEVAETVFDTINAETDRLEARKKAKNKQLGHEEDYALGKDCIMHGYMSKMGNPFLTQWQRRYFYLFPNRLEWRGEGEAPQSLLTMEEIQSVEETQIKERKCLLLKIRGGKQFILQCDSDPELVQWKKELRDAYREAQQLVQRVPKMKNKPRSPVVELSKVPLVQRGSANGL
Put plainly: Inhibition of GRK2 (unknown origin) preincubated for 10 mins followed by peptide substrate and ATP addition measured after 1 hr by TR-FRET assay.

For assay [4], the species on record is Homo sapiens. Put plainly: Selectivity ratio of IC50 for GRK5 (unknown origin) to IC50 for GRK2 (unknown origin) by phosphorylation assay.

For orientation: IC50 means the midpoint of a concentration-inhibition curve.

G protein-coupled receptor kinase 5, sequence (P34947 whole entry): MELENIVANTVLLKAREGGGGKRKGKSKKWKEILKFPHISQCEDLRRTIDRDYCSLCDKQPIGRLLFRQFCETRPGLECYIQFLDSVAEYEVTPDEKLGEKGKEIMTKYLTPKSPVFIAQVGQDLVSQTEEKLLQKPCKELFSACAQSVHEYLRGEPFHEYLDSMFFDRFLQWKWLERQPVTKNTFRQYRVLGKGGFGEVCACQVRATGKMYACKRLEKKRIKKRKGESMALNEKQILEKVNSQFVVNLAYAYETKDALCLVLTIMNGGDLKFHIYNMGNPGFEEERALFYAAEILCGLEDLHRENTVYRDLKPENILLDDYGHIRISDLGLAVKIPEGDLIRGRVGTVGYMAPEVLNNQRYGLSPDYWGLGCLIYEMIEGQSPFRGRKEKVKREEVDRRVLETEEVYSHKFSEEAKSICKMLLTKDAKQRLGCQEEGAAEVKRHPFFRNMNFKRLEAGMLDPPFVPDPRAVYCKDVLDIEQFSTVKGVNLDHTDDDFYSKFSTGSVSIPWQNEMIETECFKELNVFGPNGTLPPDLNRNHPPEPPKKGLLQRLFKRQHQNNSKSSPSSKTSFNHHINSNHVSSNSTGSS

On to `CC1=C(C(=O)Nc2ccc3[nH]ncc3c2)C(c2ccc(F)c(CC(=O)N3Cc4ccc(C)cc4C3)c2)NC(=O)N1` (stereo not given), for which the IC50 in assay [1] was 6.3 µM; in assay [2], greater than 100 µM; in assay [3], 0.2 µM.

In the case of `CC1=C(C(=O)Nc2ccc3[nH]ncc3c2)C(c2ccc(F)c(C(=O)N(C)CC3CCCCO3)c2)NC(=O)N1` (stereo not given), the IC50 in assay [1] was greater than 100 µM; in assay [2], greater than 100 µM; in assay [3], 14 µM.

Take `CC1=C(C(=O)Nc2ccc3[nH]ncc3c2)C(c2ccc(F)c(CC(=O)NCc3cc(C)ccc3C)c2)NC(=O)N1` (stereo not given): the values for the IC50 in assay [1], in assay [2] and in assay [3] were greater than 100 µM, greater than 100 µM and 1.9 µM, respectively.

As for `CC1=C(C(=O)Nc2ccc3[nH]ncc3c2)C(c2ccc(F)c(CCC(=O)NCCc3ccccc3)c2)NC(=O)N1` (stereo not given), the results for the IC50 in assay [1], in assay [2] and in assay [3] were greater than 100 µM, greater than 100 µM and 4.7 µM, respectively.

With `CC1=C(C(=O)Nc2ccc3[nH]ncc3c2)C(c2ccc(F)c(C(=O)NCc3cn4ccccc4n3)c2)NC(=O)N1` (stereo not given), the IC50 in assay [1] stood at 1.9 µM; in assay [2], 17 µM; in assay [3] it was 0.54 µM. In addition, the Ratio IC50 in assay [4] stood at 3.5.

For the compound `CC1=C(C(=O)Nc2ccc3[nH]ncc3c2)C(c2ccc(F)c(CC(=O)N3CCC4CCC(C3)N4C)c2)NC(=O)N1` (stereo not given), the IC50 is 6.1 µM in assay [1], greater than 100 µM in assay [2] and 2.1 µM in assay [3].

As for `C#CCN(Cc1ccco1)C(=O)Cc1cc(C2NC(=O)NC(C)=C2C(=O)Nc2ccc3[nH]ncc3c2)ccc1F` (stereo not given), the IC50 in assay [1] is 3.5 µM; in assay [2], greater than 100 µM; in assay [3], 0.92 µM.

With `CC1=C(C(=O)Nc2ccc3[nH]ncc3c2)C(c2ccc(F)c(CC(=O)N(CCO)Cc3ccco3)c2)NC(=O)N1` (stereo not given), the figures for the half-maximal inhibitory concentration (IC50) in assay [1], in assay [2] and in assay [3] were 1.7 µM, 26 µM and 0.46 µM, respectively.

For the compound `CC#CCN(CCCC)C(=O)Cc1cc(C2NC(=O)NC(C)=C2C(=O)Nc2ccc3[nH]ncc3c2)ccc1F` (stereo not given), the IC50 in assay [1] is 2.4 µM; in assay [2] it was greater than 100 µM; in assay [3], 0.43 µM.

For `CCC(C)CN(CCO)C(=O)Cc1cc(C2NC(=O)NC(C)=C2C(=O)Nc2ccc3[nH]ncc3c2)ccc1F` (stereo not given), the 50% inhibitory concentration (IC50) was 9.3 µM in assay [1], greater than 100 µM in assay [2] and 0.83 µM in assay [3].

Take `CCC(C)N(C)C(=O)c1cc(C2NC(=O)NC(C)=C2C(=O)Nc2ccc3[nH]ncc3c2)ccc1F` (stereo not given): the half-maximal inhibitory concentration (IC50) was greater than 100 µM in assay [1], greater than 100 µM in assay [2] and 44 µM in assay [3].

Take `CC1=C(C(=O)Nc2ccc3[nH]ncc3c2)C(c2ccc(F)c(CC(=O)N3CCCC(C(C)(C)C)CC3)c2)NC(=O)N1` (stereo not given): the IC50 was greater than 100 µM in assay [1], greater than 100 µM in assay [2] and 3.5 µM in assay [3].

Take `CC1=C(C(=O)Nc2ccc3[nH]ncc3c2)C(c2ccc(F)c(C(=O)NC(C)CCCC(C)C)c2)NC(=O)N1` (stereo not given): the IC50 in assay [1] is greater than 100 µM; in assay [2], greater than 100 µM; in assay [3], 4.1 µM.

For the compound `COCCCC1CCCCN1C(=O)c1cc(C2NC(=O)NC(C)=C2C(=O)Nc2ccc3[nH]ncc3c2)ccc1F` (stereo not given), the values for the IC50 in assay [1], in assay [2] and in assay [3] were greater than 100 µM, greater than 100 µM and 29 µM, respectively.

For `CC1=C(C(=O)Nc2ccc3[nH]ncc3c2)C(c2ccc(F)c(CCC(=O)NCC3(CO)CC3)c2)NC(=O)N1` (stereo not given), the IC50 in assay [1] is greater than 100 µM; in assay [2] it was greater than 100 µM; in assay [3], 3.8 µM.

On to `CCC1(O)CCCN(C(=O)CCc2cc(C3NC(=O)NC(C)=C3C(=O)Nc3ccc4[nH]ncc4c3)ccc2F)C1` (stereo not given), for which the IC50 was greater than 100 µM in assay [1], greater than 100 µM in assay [2] and 29 µM in assay [3].

With `CC1=C(C(=O)Nc2ccc3[nH]ncc3c2)C(c2ccc(F)c(CCC(=O)NCC3(C)CCCCC3)c2)NC(=O)N1` (stereo not given), the values for the IC50 in assay [1], in assay [2] and in assay [3] were greater than 100 µM, greater than 100 µM and 1.8 µM, respectively.

On to `CC1=C(C(=O)Nc2ccc3[nH]ncc3c2)C(c2ccc(F)c(C(=O)NCc3cnc4c(c3)CCC4)c2)NC(=O)N1` (stereo not given), for which the figures for the half-maximal inhibitory concentration (IC50) in assay [1], in assay [2] and in assay [3] were 9.5 µM, greater than 100 µM and 0.34 µM, respectively.
